Test results from US12297190B2, “Modulators of STING (stimulator of interferon genes)” (PFIZER INC., priority 2019, dated 2025).

Target: R232-STING (Homo sapiens, UniProt Q86WV6, H232R)
Assay: biochemical

Chain of R232-STING (Q86WV6 155-341 H232R): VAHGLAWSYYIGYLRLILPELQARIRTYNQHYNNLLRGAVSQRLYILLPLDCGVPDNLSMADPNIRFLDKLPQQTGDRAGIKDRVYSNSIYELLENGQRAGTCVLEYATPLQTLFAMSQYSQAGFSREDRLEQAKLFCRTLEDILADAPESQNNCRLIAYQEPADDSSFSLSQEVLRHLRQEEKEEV

Compound	Ki
CCc1nc(C)n(C)c1-c1n[nH]c(-c2cc(C(N)=O)cc3c2cnn3C)n1 [ZZZ056, 4-[3-(4-ethyl-1,2-dimethyl-1H-imidazol-5-yl)-1H-1,2,4-triazol-5-yl]-1-methyl-1H-indazole-6-carboxamide]	> 990 nM
CCn1nc(C)c(F)c1-c1nnc(-c2cc(C(N)=O)cn3c(C(=O)O)ncc23)[nH]1 [ZZZ057, 6-carbamoyl-8-[5-(1-ethyl-4-fluoro-3-methyl-1H-pyrazol-5-yl)-4H-1,2,4-triazol-3-yl]imidazo[1,5-a]pyridine-3-carboxylic acid]	> 990 nM
CCn1nc(C)cc1-c1nnc(-c2cc(C(N)=O)cc3c2cnn3C[C@H]2[C@@H]3CNC[C@@H]32)[nH]1 [ZZZ058, 1-{[(1R,5S,6r)-3-azabicyclo[3.1.0]hexan-6-yl]methyl}-4-[5-(1-ethyl-3-methyl-1H-pyrazol-5-yl)-4H-1,2,4-triazol-3-yl]-1H-indazole-6-carboxamide]	> 990 nM
CCn1nc(C)cc1-c1nnc(-c2cc(C(N)=O)cc3c2cnn3CC[C@@H]2COCCN2)[nH]1 [ZZZ059, 4-[5-(1-ethyl-3-methyl-1H-pyrazol-5-yl)-4H-1,2,4-triazol-3-yl]-1-{2-[(3R)-morpholin-3-yl]ethyl}-1H-indazole-6-carboxamide]	948 nM
CCn1ccc2c(-c3nc(-c4cc(C)nn4CCC(=O)O)n[nH]3)nc(C(N)=O)cc21 [ZZZ062, 3-{5-[5-(6-carbamoyl-1-ethyl-1H-pyrrolo[3,2-c]pyridin-4-yl)-1H-1,2,4-triazol-3-yl]-3-methyl-1H-pyrazol-1-yl}propanoic acid]	543 nM
CCn1nc(C)cc1-c1nnc(-c2cc(C(N)=O)cc3c2cnn3Cc2noc3c2CNCC3)[nH]1 [ZZZ068, 4-[5-(1-ethyl-3-methyl-1H-pyrazol-5-yl)-4H-1,2,4-triazol-3-yl]-1-[(4,5,6,7-tetrahydro[1,2]oxazolo[4,5-c]pyridin-3-yl)methyl]-1H-indazole-6-carboxamide]	> 990 nM

Now from value to molecule:

Ki	Compound
541 nM	CCn1nc(C)cc1-c1nnc(-c2cc(C(N)=O)cc3c2cnn3CC23CCCC2CNC3)[nH]1 (stereo not drawn) [ZZZ060, 4-[5-(1-ethyl-3-methyl-1H-pyrazol-5-yl)-4H-1,2,4-triazol-3-yl]-1-[(hexahydrocyclopenta[c]pyrrol-3a(1H)-yl)methyl]-1H-indazole-6-carboxamide]
882 nM	CCn1nc(C)cc1-c1nnc(-c2cc(C(N)=O)cc3c2cnn3[C@H]2CCCNC2)[nH]1 [ZZZ061, 4-[5-(1-ethyl-3-methyl-1H-pyrazol-5-yl)-4H-1,2,4-triazol-3-yl]-1-[(3S)-piperidin-3-yl]-1H-indazole-6-carboxamide]
> 990 nM	CCn1nc(C)cc1-c1nnc(-c2cc(C(N)=O)cc3c2cnn3C[C@@H]2CNCCO2)[nH]1 [ZZZ064, 4-[5-(1-ethyl-3-methyl-1H-pyrazol-5-yl)-4H-1,2,4-triazol-3-yl]-1-{[(2S)-morpholin-2-yl]methyl}-1H-indazole-6-carboxamide]
964 nM	CCn1nc(C)cc1-c1nnc(-c2cc(C(N)=O)cc3c2cnn3C[C@H]2C[C@H]3CC[C@@H](C2)N3)[nH]1 [ZZZ065, 1-{[(1R,3r,5S)-8-azabicyclo[3.2.1]octan-3-yl]methyl}-4-[5-(1-ethyl-3-methyl-1H-pyrazol-5-yl)-4H-1,2,4-triazol-3-yl]-1H-indazole-6-carboxamide]
> 990 nM	CCn1nc(C)cc1-c1nnc(-c2cc(C(N)=O)cc3c2cnn3[C@H]2C[C@H](NC)C2)[nH]1 [ZZZ066, 4-[5-(1-ethyl-3-methyl-1H-pyrazol-5-yl)-4H-1,2,4-triazol-3-yl]-1-[(1r,3r)-3-(methylamino)cyclobutyl]-1H-indazole-6-carboxamide]
536 nM	CCn1nc(C)cc1-c1nnc(-c2cc(C(N)=O)cc3c2cnn3C2CCNCC2)[nH]1 [ZZZ067, 4-[5-(1-ethyl-3-methyl-1H-pyrazol-5-yl)-4H-1,2,4-triazol-3-yl]-1-(piperidin-4-yl)-1H-indazole-6-carboxamide]
